Data on nine compounds can be found in the NIST ThermoML archive (doi:10.1007/s10765-005-8096-3).

Structures are written as SMILES. ± gives the expanded uncertainty stated by the source.

This data set is described as follows: refractive index (Na D-line) (dimensionless). To be noted: 298.15 K; 101.33 kPa; Liquid; Standard Abbe refractometry.
Broadly, the refractive index is a measure of how strongly the sample bends light. Take `Cc1cc(C)cc(C)c1` [1,3,5-trimethylbenzene]: the refractive index stood at 1.49682 ± 0.00075.

Take `Cc1ccc(C)cc1` [1,4-dimethylbenzene]: the refractive index is recorded as 1.49298 ± 0.00075.

Turning to `CC(C)(C)c1ccccc1` [(1,1-dimethylethyl)benzene], the refractive index was determined as 1.49003 ± 0.00075.

As to `CC(C)Cc1ccccc1` [(2-methylpropyl)benzene], the refractive index worked out at 1.48397 ± 0.00075.

For `CCCCOC(C)=O` [butyl ethanoate], the refractive index was 1.39176 ± 0.00075.

`CCCCc1ccccc1` [butylbenzene]: the refractive index amounted to 1.48735 ± 0.00075.

On to `CCc1ccccc1` [ethylbenzene], for which the refractive index is 1.49316 ± 0.00075.

With `CC(C)c1ccccc1` [isopropylbenzene], the refractive index turned out to be 1.48869 ± 0.00075.

For `Cc1ccccc1` [toluene], the refractive index is reported as 1.49399 ± 0.00075.
